{"source": "patent EP0314302A2", "about": "“Herbicidal o-carbomethoxy-sulfonylureas” (E.I. DU PONT DE NEMOURS AND COMPANY, priority 1987, dated 1989)", "key": {"weed": {"system": "weed", "test": "Test 6 effect of surfactants, postemergence", "format": "in vivo", "conditions": "addition of a surfactant", "text": "The object of this test was to evaluate the effect of surfactants and plant growth stage on the efficacy of the compound of this invention. Plastic windowsill pots were filled with planting medium and seeded with yellow nutsedge (Cyperus esculentus), large crabgrass (Digitaria sanguinalis), goosegrass (Elsusine indica), bermudagrass (Cynodon dactylon), broadleaf signalgrass (Brachiara platyphalla), smooth crabgrass (Digitaria ischaemum), guinea grass (Panicum maximum) and johnsongrass (Sorghum halapense). Coffee (Coffea spp) plants with 2 to 4 branches were included in one test.\nPlants were treated postemergence with Compound I formulated with different surfactants or a non-phytotoxic carrier made up of acetone-humectant-water-surfactant."}, "Yellow nutsedge": {"system": "Yellow nutsedge", "test": "Test 11 citrus pots, postemergence to the weeds", "format": "in vivo, Cyperus esculentus", "conditions": "Postemergence 32 g/ha, 0.25% X-77 surfactant, scale 0-100", "description": "(§1) Budded citrus seedlings were planted in 30-liter plastic pots which were also seeded with sandbur, guineagrass, narrowleaf panicum, common ragweed, yellow nutsedge, purple nutsedge and bindweed. Compound I was applied preemergence and postemergence to the weeds. Treatments were sprayed to simulate the trunk-to-trunk herbicide application method used in some citrus groves. The compound was also applied postemergence to weeds grown in windowsill flats. The flats were filled with planting medium and seeded with morningglory (Ipomoea spp.). purple nutsedge (Cyperus rotundus), pigweed (Amaranthus spp.), bindweed (Convolvulus spp.), narrowleaf panicum (Panicum maximum), common ragweed (Ambrosia artemisiifolia), sandbur (Cenchrus echinatus), itchgrass (Rottboellia exaltata), johnsongrass (Sorghum halepense), guineagrass (Panicum maximum), smooth crabgrass (Digitaria ischaemum), broadleaf signalgrass (Brachiaria platyphylla), bermudagrass (Cynodon dactylon), goosegrass (Eleusine indica), large crabgrass (Digitaria sanguinalis) and yellow nutsedge (Cyperus esculentus).\n(§2) The compound was formulated and sprayed with 0.25% X-77 surfactant in water. Plants were visually rated 21 and 29 days after treatment and compared with appropriate controls. Injury ratings were based on the scale of 0 to 100, where 0 indicates no effect, 20 indicates minimum effect and 100 indicates complete control. […]"}, "Crabgrass": {"system": "Crabgrass", "test": "Test 3 postemergence weed control", "format": "in vivo, Digitaria spp", "conditions": "scale 0-100", "description": "Seeds of crabgrass (Digitaria spp), guinea grass (Panicum maximum) and narrowleaf panicum (P. maximum) were planted in 15-cm plastic pots. The weeds were treated postemergence with compound I, formulated in a non-phytotoxic solvent, when the plants had 3 or more leaves and had tillered. The degree of weed control was visually rated 17 days after compound application (DAT). Control ratings were based on a scale of 0 to 100 where 0 = no effect, 20 = minimal control and 100 = complete control."}, "Loblolly pine": {"system": "Loblolly pine", "test": "Test 13 conifer seedlings, postemergence", "format": "in vivo", "conditions": "scale 0-100", "text": "Conifer species (Loblolly pine) seedlings were transplanted into 15-cm plastic pots filled with planting medium. Compound I was applied postemergence to the loblolly pine seedlings. The compound was formulated in a non-phytotoxic spray solvent. Plans were visually rated 240 days after treatment (DAT) and compared with appropriate controls. Injury ratings are based on the scale of 0 to 100, where 0 indicates no effect, 20 indicates minimal injury and 100 indicates complete kill."}, "Pigweed": {"system": "Pigweed", "test": "Test 9 postemergence", "format": "in vivo, Amaranthus spp", "conditions": "16 g/ha, scale 0-100", "description": "(§3) Plastic windowsill pots containing planting medium were seeded with bahiagrass, bindweed (Convolvulus spp), guinea grass (Panicum maximum), large crabgrass (Digitaria sanguinalis) and pigweed (Amaranthus spp). Individual 15-cm plastic pots contained sandbur (Cenchrus echinatus), Mikania cordata, Boston fern (Nephrolepis exalata), quackgrass (Agropyron repens), elephantgrass (Pennisetum purpureum) and sowthistle (Sonchus spp) plants.\n(§4) Plants were treated postemergence with Compound I formulated in a non-phytotoxic solvent. Plants were visually rated 22 days after treatment (DAT). Injury and weed control ratings were based on the scale of 0 to 100 where 0 = no effect, 20 = minimal control and 100 = complete control."}, "Guinea Grass": {"system": "Guinea Grass", "test": "Test 9 postemergence", "format": "in vivo, Panicum maximum", "conditions": "16 g/ha, scale 0-100", "description": "as §3, §4"}, "Narrowleaf panicum": {"system": "Narrowleaf panicum", "test": "Test 11 citrus pots, postemergence to the weeds", "format": "in vivo, Panicum maximum", "conditions": "Postemergence 32 g/ha, 0.25% X-77 surfactant, scale 0-100", "description": "as §1, §2"}, "Guineagrass": {"system": "Guineagrass", "test": "Test 11 citrus pots, postemergence to the weeds", "format": "in vivo, Panicum maximum", "conditions": "Postemergence 32 g/ha, 0.25% X-77 surfactant, scale 0-100", "description": "as §1, §2"}, "Morningglory": {"system": "Morningglory", "test": "Test 11 windowsill flats, postemergence", "format": "in vivo, Ipomoea spp.", "conditions": "Postemergence 32 g/ha, 0.25% X-77 surfactant, scale 0-100", "description": "as §1, §2"}, "Sour Lemon": {"system": "Sour Lemon", "test": "Test 12 over-the-top application, postemergence", "format": "in vivo", "conditions": "26 days after treatment, scale 0-100", "text": "(§5) The object of this test was to evaluate the safety of sour lemon to the over-the-top application of Compound I and control of lantana (Lantana camara) and trumpetcreeper (Campsis radicans). Plants were sprayed postemergence with Compound I formulated in a non-phytotoxic solvent. Treated plants were visually rated 26 days after treatment and compared with appropriate controls. Injury ratings were based on the scale of 0 to 100, where 0 indicates no effect, 20 indicates minimal effect and 100 indicates complete control."}, "Trumpetcreeper": {"system": "Trumpetcreeper", "test": "Test 12 over-the-top application, postemergence", "format": "in vivo, Campsis radicans", "conditions": "26 days after treatment, scale 0-100", "text": "as §5"}, "Grapes": {"system": "Grapes", "test": "Test 10 postemergence safety to crops and weed control", "format": "in vivo, Macedine grapes", "conditions": "scale 0-100", "description": "The object of these tests was to evaluate the compound of this invention for postemergence safety to crops and weed control. Seedling and budded Macedine grapes were grown in 11.4-cm pots. Flax, green foxtail (Setaria viridis), \"Morex\" barley, wild oats (Avena fatua), \"Era\" wheat, annual ryegrass (Lolium multiflorum), wild radish (Raphanus raphanistrum), rape, sunflower, chickweed (Stellaria media) and wild buckwheat (Polygonum convolvulus) were seeded in windowsill pots.\nThe plants were sprayed postemergence with Compound I in a non-phytotoxic solvent. Plants were visually rated 15 and 27 days after treatment (DAT). Injury and weed control ratings were based on the scale of 0 to 100 where 0 = no effect, 20 minimal control and 100 = complete control."}}}
{"molecule": "COC(=O)c1cccnc1S(=O)(=O)NC(=O)Nc1nc(OC)cc(OC)n1", "note": "[Compound I, 2-[[(4,6-dimethoxypyrimidin-2-yl)aminocarbonyl]aminosulfonyl]-3-pyridinecarboxylic acid, methyl ester]", "values": [{"measurement": "weed control", "setting": "weed", "value": "could improve the weed control"}, {"measurement": "Injury ratings", "setting": "Yellow nutsedge", "value": 100}, {"measurement": "Control Rating 17 DAT", "setting": "Crabgrass; 8 g/ha", "value": 50}, {"measurement": "Control Rating 17 DAT", "setting": "Crabgrass; 16 g/ha", "value": 70}, {"measurement": "Control Rating 17 DAT", "setting": "Crabgrass; 32 g/ha", "value": 100}, {"measurement": "Plant Injury Rating 240 DAT", "setting": "Loblolly pine; 8 g/ha", "value": 0}, {"measurement": "Plant Injury Rating 240 DAT", "setting": "Loblolly pine; 16 g/ha", "value": 0}, {"measurement": "Plant Injury Rating 240 DAT", "setting": "Loblolly pine; 32 g/ha", "value": 0}, {"measurement": "Plant Injury Rating 240 DAT", "setting": "Loblolly pine; 64 g/ha", "value": 0}, {"measurement": "Plant Injury Rating 240 DAT", "setting": "Loblolly pine; 125 g/ha", "value": 0}, {"measurement": "Plant Injury Rating 22 DAT", "setting": "Pigweed", "value": 90}, {"measurement": "Plant Injury Rating 22 DAT", "setting": "Guinea Grass", "value": 60}, {"measurement": "Injury ratings", "setting": "Narrowleaf panicum", "value": 90}, {"measurement": "Injury ratings", "setting": "Guineagrass", "value": 100}, {"measurement": "Injury ratings", "setting": "Morningglory", "value": 90}, {"measurement": "Injury ratings", "setting": "Sour Lemon; 8 g/ha", "value": 20}, {"measurement": "Injury ratings", "setting": "Sour Lemon; 16 g/ha", "value": 50}, {"measurement": "Injury ratings", "setting": "Sour Lemon; 32 g/ha", "value": 70}, {"measurement": "Injury ratings", "setting": "Trumpetcreeper; 8 g/ha", "value": 0}, {"measurement": "Injury ratings", "setting": "Trumpetcreeper; 16 g/ha", "value": 20}, {"measurement": "Injury ratings", "setting": "Trumpetcreeper; 32 g/ha", "value": 40}, {"measurement": "Plant Injury Rating 27 DAT", "setting": "Grapes; Budded grapes, 1 g/ha", "value": 0}, {"measurement": "Plant Injury Rating 27 DAT", "setting": "Grapes; Budded grapes, 2 g/ha", "value": 0}, {"measurement": "Plant Injury Rating 27 DAT", "setting": "Grapes; Budded grapes, 4 g/ha", "value": 0}, {"measurement": "Plant Injury Rating 27 DAT", "setting": "Grapes; Budded grapes, 8 g/ha", "value": 0}, {"measurement": "Plant Injury Rating 27 DAT", "setting": "Grapes; Budded grapes, 16 g/ha", "value": 10}, {"measurement": "Plant Injury Rating 27 DAT", "setting": "Grapes; Budded grapes, 32 g/ha", "value": 10}, {"measurement": "Plant Injury Rating 27 DAT", "setting": "Grapes; Seedling grapes, 1 g/ha", "value": 0}, {"measurement": "Plant Injury Rating 27 DAT", "setting": "Grapes; Seedling grapes, 2 g/ha", "value": 0}, {"measurement": "Plant Injury Rating 27 DAT", "setting": "Grapes; Seedling grapes, 4 g/ha", "value": 0}, {"measurement": "Plant Injury Rating 27 DAT", "setting": "Grapes; Seedling grapes, 8 g/ha", "value": 10}, {"measurement": "Plant Injury Rating 27 DAT", "setting": "Grapes; Seedling grapes, 16 g/ha", "value": 20}, {"measurement": "Plant Injury Rating 27 DAT", "setting": "Grapes; Seedling grapes, 32 g/ha", "value": 20}]}
